Measured values as given in patent US20100324067A1, “TETRACYCLIC DIPYRANO-COUMARIN COMPOUNDS WITH ANTI-HIV AND ANTI-MYCOBACTERIUM TUBERCULOSIS ACTIVITIES” (priority 2007, published 2010).
≈ marks a conversion by molar mass, not a printed value. Read-outs that look alike come from different tables or passages of the source.

Key:
host cells of the virus = assay: Cell toxicity to the host cells of the virus at 10 μM; assay type: cell-based
HIV-1 [1] = assay: Inhibitory activity against HIV-1 (literature method, Chen et al. J Virol 1997); details: for inhibition at 1 µM: Human immunodeficiency virus 1, read-out: Anti-HIV (%, 1.0 μM)
Experimental: Inhibitory activity of the coumarin derivatives of the present invention against HIV-1.
Inhibitory activity of the compounds against HIV-1 is assayed using the literature method. The experimental conditions, procedures, reagents and so on of the experiment are referred to the reference of “ZHIWEI CHEN, PEI ZHOU, DAVID D. HO, et al. Genetically divergent strains of simian immuno-deficiency virus use CCR5 as a coreceptor for entry. Journal of Virology, 1997, 71(4): 2705-2714”.

HIV-1 [2] = details: cited from earlier work
[3] = test system: CEM-SS cells (human T-lymphoblastic cells); details: cited from earlier work
H37Rv strain = H37Rv strain growth; Bioorg. Med. Chem., 2004, 1199-1207; cited from earlier work
[4] = test system: Mycobacterium tuberculosis H37Rv (ATCC 27294); assay: Microplate Alamar Blue Assay (MABA) in BACTEC 12B medium (TAACF screen); assay type: cell-based
[5] = read-out: anti-TB active compound (MIC90 less than 10 μg/mL), classification

| Compound | inhibition at 1 µM (HIV-1 [1]) | melting point | Cell toxicity (10 μM) (host cells of the virus) | IC50 [4] | MIC90 ([4]; MABA, H37Rv, read-out: MIC90) | further results |
| --- | --- | --- | --- | --- | --- | --- |
| CCCc1cc(=O)oc2c3c(c4c(c12)OC(C)(C)C=C4)O[C@H](C)[C@@H](C)[C@@H]3O [(+)-Calanolide A, (+)-calanolide A] | 86% |  |  |  |  | Cell toxicity (10 μM), number printed before the class symbol (host cells of the virus; 10 μM): 6%; therapeutic index (TI) (HIV-1 [2]; J. MED. CHEM. 1996, 39, 1303): 16-279; EC50 (HIV-1 [2]; anti-HIV-1, literature, read-out: EC50): 100 nM; EC50 (HIV-1 [2]; from J. Med. Chem. 1996, 39(6):1303-13, unit inferred, read-out: EC50 (TI)): 100 to 200 nM; activity against TIBO of pyridinone-resistant A17 strains (HIV-1 [2]; resistant strain A17): active; activity against AZT-1-resistant strains (G-9106) of HIV-1 (HIV-1 [2]; resistant strain G-9106): active; CC50 [3]: 20000 nM; MIC90 (H37Rv strain): 3.13 µg/mL (≈ 8.45 µM) |
| CCCc1cc(=O)oc2c3c(c4c(c12)OC(CCC)C=C4)OC(C)CC3=O (stereo not shown) [Example 34, 10-methyl-4,6-di(-n-propyl)-2H,6H,12H-benzo[1,2-b:3,4-b′:5,6-b″]-tripyranyl-2,12-dione] | 54.1% | 158 to 160 °C | − | 2.88 µg/mL (≈ 7.8 µM) | 3.18 µg/mL (≈ 8.64 µM) | MIC90 [4, 5]: < 10 µg/mL |
| CCCc1cc(=O)oc2c3c(c4c(c12)OC(C)(C)C=C4)OC1CC1C3=O (stereo not drawn) [Example 70, 6,6,-dimethyl-4-propyl-10,11-cis-cyclopropyl-2H,6H,12H-benzo[1,2-b:3,4-b′:5,6-b″]tripyranyl-2,12-dione] | 68.6% | 113 to 115 °C | − | 3.31 µg/mL (≈ 9.38 µM) | 5.54 µg/mL (≈ 15.7 µM) | EC50 (HIV-1 [1]; Human immunodeficiency virus 1): 14.1 nM; anti-HIV-1 activity in vitro compared to (+)-calanolide A (HIV-1 [1]; in words): much higher inhibitory activity; therapeutic index, in words (HIV-1 [1]; in words): high therapeutic index; Therapeutic index (TI) = 50% cytotoxicity doses/50% effective dose (HIV-1 [1]; value in brackets after EC50): 709-2127; MIC90 [4, 5]: < 10 µg/mL |
| CC1CC(=O)c2c(c3c(c4c(CCC(F)(F)F)cc(=O)oc24)OC(c2ccccc2)C=C3)O1 (stereo not shown) [Example 74, 4-(3,3′, 3″-trifluoro-n-propyl)-6-phenyl-O-methyl-2H,6H, 2H-benzo[1,2-b:3,4-b′:5,6-b″]-tripyranyl-2,12-dione] | 47.6% | 171 to 173 °C | − | 5.7 µg/mL (≈ 12.5 µM) | 6.38 µg/mL (≈ 14 µM) | MIC90 [4, 5]: < 10 µg/mL |
| CCc1cc(=O)oc2c3c(c4c(c12)OC(C)C=C4)OC(C)CC3=O (stereo not shown) [Example 79, 6,10-dimethyl-4-ethyl-2H,6H,12H-benzo[1,2-b:3,4-b′:5,6-b″]-tripyranyl-2,12-dione] | 57.4% | 133 to 134 °C | − | 6.07 µg/mL (≈ 18.6 µM) | 6.84 µg/mL (≈ 21 µM) |  |
| CCCCc1cc(=O)oc2c3c(c4c(c12)OC(C)C=C4)OC(C)CC3=O (stereo not shown) [Example 82, 6,10-dimethyl-4-n-butyl-2H,6H,12H-benzo[1,2-b:3,4-b′:5,6-b″]-tripyranyl-2,12-dione] | 75.4% | 128 to 129 °C | − | 36.3 µg/mL (≈ 102 µM) | 56.2 µg/mL (≈ 158 µM) |  |
| CCc1c(F)c(=O)oc2c3c(c4c(c12)OC(C)C=C4)OC(C)CC3=O (stereo not shown) [Example 83, 6,10-dimethyl-4-ethyl-3-fluoro-2H, H, 12H-benzo[1,2-b:3,4-b′: 5,6-b″]-tripyranyl-2,12-dione] | 39.5% | 141 to 142 °C | − | 24.4 µg/mL (≈ 70.9 µM) | 27.7 µg/mL (≈ 80.4 µM) |  |
| C/C=C/C1C=Cc2c3c(c4oc(=O)cc(CC)c4c2O1)C(=O)CC(C)O3 (stereo not shown) [Example 87, 4-ethyl-6-propenyl-10-methyl-2H,6H,12H-benzo[1,2-b:3,4-b′:5,6-b″]-tripyranyl-2,12-d ione] | 56.4% | 153 to 155 °C | − | 51.2 µg/mL (≈ 145 µM) | > 100 µg/mL |  |
| C/C=C/C1C=Cc2c3c(c4oc(=O)c(F)c(CC)c4c2O1)C(=O)CC(C)O3 (stereo not shown) [Example 88, 4-ethyl-6-propenyl-3-fluoro-10-methyl-2H,6H,12H-benzo[1,2-b:3,4-b′:5,6-b″]-tripyranyl-2,12-dione] | 46.2% | 158 to 161 °C | − | 70.7 µg/mL (≈ 191 µM) | > 100 µg/mL |  |
| CCCc1c(Cl)c(=O)oc2c3c(c4c(c12)OCC(C)C4OCC)OC(C)CC3=O (stereo not shown) [Example 96, 8-ethoxyl-7,10-dimethyl-4-n-propyl-3-chloro-7,8,10,11-tetrahydro-6H-benzo[2,3-f;2′,3′-h]-tripyranyl-2,12-dione] | 51.7% | 187 to 189 °C | − | 11.1 µg/mL (≈ 26.4 µM) | 22.2 µg/mL (≈ 52.8 µM) |  |
| CCCc1cc(=O)oc2c3c(c4c(c12)OC(c1ccccc1[N+](=O)[O-])C=C4)OC(C)CC3=O (stereo not shown) [Example 97] | 52.6% | 216 to 218 °C | − |  |  |  |
